Assay results taken from patent US8067599B2 (Hoffman-La Roche Inc., priority 2006, dated 2011).

Legend:
HCT 116 cells = experiment: CellTiter-Glo assay in HCT 116 cells (antiproliferative activity); format: cell-based; details: Homo sapiens, HCT-116, 120 h, cell viability after 5 days
Protocol: The CellTiter-Glo™ Luminescent Cell Viability Assay (Promega) is a homogeneous method of determining the number of viable cells in culture based on quantitation of the ATP present, which signals the presence of metabolically active cells.
HCT 116 cells (human colon carcinoma, ATCC-No. CCl-247) were cultivated in RPMI 1640 medium with GlutaMAX™ 1 (Invitrogen, Cat-No. 61870-010), 5% Fetal Calf Serum (FCS, Sigma Cat-No. F4135 (FBS)); 100 Units/ml penicillin/100 μg/ml streptomycin (=Pen/Strep from Invitrogen Cat. No. 15140). For the assay the cells were seeded in 384 well plates, 1000 cells per well, in the same medium. The next day the test compounds were added in various concentrations ranging from 30 μM to 0.0015 μM (10 concentrations, 1:3 diluted). After 5 days the CellTiter-Glo™ assay was done according to the instructions of the manufacturer (CellTiter-Glo™ Luminescent Cell Viability Assay, from Promega). In brief: the cell-plate was equilibrated to room temperature for approximately 30 minutes and than the CellTiter-Glo™ reagent was added. The contents were carefully mixed for 15 minutes to induce cell lysis. After 45 minutes the luminescent signal was measured in Victor 2, (scanning multiwell spectrophotometer, Wallac).
• Medium: RPMI 1640 with GlutaMAX™ 1 (Invitrogen, Cat-No. 61870), 5% FCS (Sigma Cat.-No. F4135), Pen/Strep (Invitrogen, Cat No. 15140). • HCT116 (ATCC-No. CCl-247): 1000 cells in 60 μl per well of 384 well plate (Greiner 781098, μClear-plate white) • After seeding incubate plates 24 h at 37° C., 5% CO2 2nd. Day: Induction (Treatment with Compounds, 10 Concentrations):
In order to achieve a final concentration of 30 μM as highest concentration 3.5 μl of 10 mM compound stock solution were added directly to 163 μl media. Then step e) of the dilution procedure described below, was followed.

[1] = biological target: human recombinant PDGFR beta (Homo sapiens, UniProt P09619); experiment: IC50 determination for inhibitors of PDGFR kinase (IMAP fluorescence polarization); format: biochemical; details: 48 uM ATP, room temperature, 60 minutes, read-out: IC50 PDGFR kinase inhibition
Chain of human recombinant PDGFR beta (P09619 33-1106): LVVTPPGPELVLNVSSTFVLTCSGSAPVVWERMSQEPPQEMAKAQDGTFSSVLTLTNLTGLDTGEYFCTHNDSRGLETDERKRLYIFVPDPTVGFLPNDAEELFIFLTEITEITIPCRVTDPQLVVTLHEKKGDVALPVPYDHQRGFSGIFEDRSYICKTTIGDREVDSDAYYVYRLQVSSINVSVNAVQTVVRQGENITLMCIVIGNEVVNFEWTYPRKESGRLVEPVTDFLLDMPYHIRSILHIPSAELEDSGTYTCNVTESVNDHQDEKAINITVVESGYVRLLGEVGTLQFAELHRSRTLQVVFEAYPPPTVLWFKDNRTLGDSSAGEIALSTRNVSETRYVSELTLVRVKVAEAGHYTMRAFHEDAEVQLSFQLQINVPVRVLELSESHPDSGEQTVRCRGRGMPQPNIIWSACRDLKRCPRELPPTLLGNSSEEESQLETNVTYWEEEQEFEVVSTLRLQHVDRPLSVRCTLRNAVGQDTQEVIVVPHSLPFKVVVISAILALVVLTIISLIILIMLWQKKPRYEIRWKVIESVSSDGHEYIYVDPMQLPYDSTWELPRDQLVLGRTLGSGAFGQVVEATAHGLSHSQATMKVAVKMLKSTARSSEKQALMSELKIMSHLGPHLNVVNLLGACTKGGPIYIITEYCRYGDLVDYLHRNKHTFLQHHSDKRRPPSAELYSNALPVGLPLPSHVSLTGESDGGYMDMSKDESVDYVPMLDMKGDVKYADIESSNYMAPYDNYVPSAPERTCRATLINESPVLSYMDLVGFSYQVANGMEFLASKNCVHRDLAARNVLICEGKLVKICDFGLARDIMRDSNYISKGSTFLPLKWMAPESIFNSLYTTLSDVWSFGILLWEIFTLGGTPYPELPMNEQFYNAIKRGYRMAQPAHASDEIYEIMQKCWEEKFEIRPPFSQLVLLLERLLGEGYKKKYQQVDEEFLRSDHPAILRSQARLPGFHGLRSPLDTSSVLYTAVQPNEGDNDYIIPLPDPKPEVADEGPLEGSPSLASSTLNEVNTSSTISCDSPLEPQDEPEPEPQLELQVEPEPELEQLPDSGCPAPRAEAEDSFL
Protocol: PDGFR assay was carried out with human recombinant PDGFR beta, fluorescein labeled peptide substrate (with a peptide sequence of ALTSNQEYLDLSMPL) and test compounds (in serial dilution) using 384-well plates. Kinase reaction was performed in MOPS buffer (20 mM MOPS pH 7.1, 5 mM Sodium Acetate, 6.25 mM MgCl2, 0.5 mM EDTA, 1 mM DTT, 0.04 mM NaVO4, 0.02% BSA), in the presence of 48 uM ATP, incubated at room temperature for 60 minutes. Reaction was stopped by IMAP Bead Binding System (Molecular Devices). After incubation at room temperature for 2 hours, the reaction product was analyzed on LJL Acquest.
(§1) FP reading (in mP) was used to calculate reaction rate. The assay was semi-automated by Tomtec Quadra workstation.

[2] = biological target: T1, fusion protein corresponding to mouse Abl (27-end) (Mus musculus, UniProt P00520); experiment: IC50 determination for inhibitors of Abl kinase (IMAP fluorescence polarization); format: biochemical; details: 22.8 uM ATP, 37° C., 60 minutes; read-out: IC50 Abl kinase inhibition
T1 construct: fusion protein corresponding to mouse Abl (27-end)
T1 sequence (P00520 27-1123 limits assumed): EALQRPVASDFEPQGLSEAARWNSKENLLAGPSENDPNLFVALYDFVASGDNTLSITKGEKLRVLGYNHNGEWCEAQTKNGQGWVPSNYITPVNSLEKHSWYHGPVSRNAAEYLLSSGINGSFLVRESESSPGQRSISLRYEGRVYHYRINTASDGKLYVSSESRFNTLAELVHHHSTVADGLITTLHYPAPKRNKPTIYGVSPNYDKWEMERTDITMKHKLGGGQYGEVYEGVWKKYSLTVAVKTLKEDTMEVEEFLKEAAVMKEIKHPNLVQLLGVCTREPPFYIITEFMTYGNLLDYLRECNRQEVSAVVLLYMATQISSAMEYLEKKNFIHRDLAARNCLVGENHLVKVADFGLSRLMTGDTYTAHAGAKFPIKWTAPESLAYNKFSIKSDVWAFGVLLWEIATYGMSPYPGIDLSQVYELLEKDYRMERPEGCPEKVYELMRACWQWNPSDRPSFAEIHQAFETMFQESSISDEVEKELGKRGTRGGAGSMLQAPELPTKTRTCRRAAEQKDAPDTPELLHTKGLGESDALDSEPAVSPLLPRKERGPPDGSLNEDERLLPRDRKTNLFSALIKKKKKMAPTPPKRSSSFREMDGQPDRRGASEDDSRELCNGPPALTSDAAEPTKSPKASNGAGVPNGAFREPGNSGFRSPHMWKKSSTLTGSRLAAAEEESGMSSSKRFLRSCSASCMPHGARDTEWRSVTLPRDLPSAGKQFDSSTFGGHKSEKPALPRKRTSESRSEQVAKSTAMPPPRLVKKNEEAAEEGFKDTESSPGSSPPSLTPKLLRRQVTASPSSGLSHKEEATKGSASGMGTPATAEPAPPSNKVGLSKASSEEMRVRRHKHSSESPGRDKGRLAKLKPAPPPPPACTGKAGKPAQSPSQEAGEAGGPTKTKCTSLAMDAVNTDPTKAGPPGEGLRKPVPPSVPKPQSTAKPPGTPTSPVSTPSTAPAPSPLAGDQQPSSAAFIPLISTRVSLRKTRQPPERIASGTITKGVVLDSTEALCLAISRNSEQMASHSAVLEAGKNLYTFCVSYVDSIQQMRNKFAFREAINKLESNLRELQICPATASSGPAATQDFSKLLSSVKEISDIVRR
Protocol: Abl assay was done using fusion protein corresponding to mouse Abl (27-end), fluorescein labeled peptide substrate (with a sequence of EAIYAAPFAKKK) and quantified by Molecular Devices' IMAP fluorescence polarization technology. Compounds were tested in serially diluted concentrations in 384 well plates. Kinase reaction was performed in KAB Buffer (10 mM HEPES, pH 7, 50 mM NaCl, 5 mM MgCl2, 1 mM DTT, 0.1 mM NaVO4, 0.02% BSA), in the presence of 22.8 uM ATP, incubated at 37° C. for 60 minutes. Reaction was stopped by IMAP bead mix (at 1:400 diluted). After incubation at room temperature for 3 hours, the reaction product was analyzed on LJL Acquest (excitation 485 nm and Emission 530 nm).
FP reading (in mP) was used to calculate reaction rate. The assay was semi automated by Tomtec Quadra workstation.

[3] = biological target: T2, mouse full-length Src protein (Mus musculus, UniProt P05480); experiment: IC50 determination for inhibitors of Src kinase (IMAP fluorescence polarization); format: biochemical; details: 24 uM ATP, 37° C., 60 minutes; read-out: IC50 Src kinase inhibition
T2 construct: mouse full-length Src protein
T2 sequence (P05480 whole entry): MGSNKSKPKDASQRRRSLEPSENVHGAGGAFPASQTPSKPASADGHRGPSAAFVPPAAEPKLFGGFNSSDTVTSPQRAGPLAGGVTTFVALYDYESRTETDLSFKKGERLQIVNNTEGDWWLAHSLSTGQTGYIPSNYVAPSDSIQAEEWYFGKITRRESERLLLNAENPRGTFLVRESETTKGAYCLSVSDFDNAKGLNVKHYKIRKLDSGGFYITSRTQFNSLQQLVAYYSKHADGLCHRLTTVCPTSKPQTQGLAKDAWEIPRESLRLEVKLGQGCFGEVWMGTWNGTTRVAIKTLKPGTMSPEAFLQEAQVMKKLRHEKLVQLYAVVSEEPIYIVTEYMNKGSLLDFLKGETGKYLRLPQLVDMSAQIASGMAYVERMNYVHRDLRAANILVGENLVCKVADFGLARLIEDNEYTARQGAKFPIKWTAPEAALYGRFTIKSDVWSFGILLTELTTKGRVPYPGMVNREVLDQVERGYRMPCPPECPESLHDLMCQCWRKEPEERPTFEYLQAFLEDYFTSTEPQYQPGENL
Protocol: Src assay was done using mouse full-length Src protein, fluorescein labeled peptide substrate (with a sequence of KVEKIGEGTYGVVYK) and quantified by Molecular Devices' IMAP fluorescence polarization technology. Compounds were tested in serially diluted concentrations in 384 well plates. Kinase reaction was performed in KAB Buffer (10 mM HEPES, pH 7, 50 mM NaCl, 5 mM MgCl2, 1 mM DTT, 0.1 mM NaVO4, 0.02% BSA), in the presence of 24 uM ATP, incubated at 37° C. for 60 minutes. Reaction was stopped by IMAP bead mix (at 1:400 dilution). After incubation at room temperature for 2 hours, the reaction product was analyzed on LJL Acquest (excitation 485 nm and Emission 530 nm).
as §1

- IC50 (HCT 116 cells): 0.1 to 10 µM
- IC50 [1]: 10 to 1000 nM
- IC50 [2]: 5 to 1000 nM
- IC50 [3]: 189 nM
Structure (SMILES): O=C(Nc1ccc(Cl)c(C(=O)Nc2cnc3[nH]ccc3c2)c1)c1ccc(N2CCOCC2)cc1 [Example 2-3, 2-Chloro-5-(4-morpholin-4-yl-benzoylamino)-N-(1H-pyrrolo[2,3-b]pyridin-5-yl)-benzamide]
